Source: ChEMBL document CHEMBL1130510, “Synthesis and in vitro cytotoxicity of aminocoumarin platinum(II) complexes” (Bioorg Med Chem Lett, 1997)

The substances below were run on Caco-2 (assay: Compound was tested in vitro for its cytotoxic activity against Caco-2T cells in MTT assay and activity is expressed as IC50). Conditions: not given.
Format: functional, cell-based, Homo sapiens
In the case of “3-Acetamido-6-Aminocoumarin Platinum (II) Complex [listing 1 of 2 here]”, the IC50 is reported as 80 µg/mL. In the case of “7-Amino-4-Methyl-Coumarin Platinum (II) Complex [listing 1 of 2 here]”, the IC50 is reported as 100 µg/mL. Work on “7-Amino-4-Trifluoromethyl-Coumarin Platinum (II) Complex [listing 1 of 2 here]” yielded an IC50 of 10 µg/mL.

Each substance was assayed on Caco-2 (assay: Compound was tested in vitro for its cytotoxic activity against Caco-2T cells in MTT assay and activity is expressed as IC80). Conditions: Homo sapiens.
Format: functional, cell-based
In the case of “3-Acetamido-6-Aminocoumarin Platinum (II) Complex [listing 2 of 2 here]”, the IC80 is reported as 30 µg/mL. Substance 6-Aminocoumarin Platinum (II) Complex has an IC80 of 100 µg/mL. “7-Amino-4-Methyl-Coumarin Platinum (II) Complex [listing 2 of 2 here]” gave an IC80 of 30 µg/mL. For “7-Amino-4-Trifluoromethyl-Coumarin Platinum (II) Complex [listing 2 of 2 here]”, the IC80 was 5 µg/mL.
